Measurements from patent publication US11149253B2, “Small molecule compound combination for reprogramming digestive tract derived epithelial cells to endodermal stem/progenitor cells, reprogramming method and application” (INSTITUE OF TRANSFUSION MEDICINE, ACADEMY OF MILITARY …, priority 2016, dated 2021).

How the values were obtained:
hiEndoPCs-Pans = assay: C-peptide release of hiEndoPC-derived pancreatic cells (ELISA); assay type: cell-based, human; settings: insulin secretion promoter stimulation of hiEndoPCs-Pans
Experimental: 2. The adhered cells were induced to differentiate to the pancreas according to four stages.
2.1 MCDB 131 medium (purchased from Gibco)+1.5 g/L of sodium bicarbonate+2 mM (concentration) 2 mM of Glutamax (Glutamine)+10 mM of final glucose concentration (glucose)+2% of BSA (bovine serum albumin)+0.25 mM of ascorbic acid (vitamin C)+50 ng/mL of FGF7 (fibroblast growth factor 7)+0.25 μM of SANT-1+1 μM of retinoic acid (RA)+100 nM of LDN193189+1:200 ITS-X (insulin-Transferrin-selenium-ethanolamine complex solution)+200 nM TPB, cultured for 2 days.
2.2 MCDB 131 medium+1.5 g/L of sodium bicarbonate+2 mM of Glutamax+10 mM of final glucose concentration+2% of BSA+0.25 mM of ascorbic acid+2 ng/mL of FGF7+0.25 μM of SANT-1+0.1 μM of retinoic acid+200 nM of LDN193189+1:200 ITS-X+100 nM of TPB, cultured for 2 days. […]
13. The OD value was measured at a wavelength of 450 nm on a microplate reader within 30 minutes, and the results were calculated.

[1] = system: human gastric epithelial cells (hGECs); assay: Reprogramming of human gastric epithelial cells (hGECs) to induced endodermal progenitor cells (hiEndoPCs); clonal formation efficiency; assay type: cell-based; settings: aGSEMFs supporting cells; for clonal formation efficiency when the compound was removed from 8M: removed one by one from 8 small molecule compounds (8M), day 15; for clonal formation efficiency when the compound was removed from BBRS: removed one by one from BBRS combination
Experimental: 1. Proliferation of the initiating cells: Primary isolated human gastric epithelial cells (hGECs) or duodenal epithelial cells (hDECs) were used as initiating cells, and cultured in Kubta medium (prepared according to the literature, literature source: Kubota, H., and Reid, L. M. (2000). Clonogenic hepatoblasts, common precursors for hepatocytic and biliary lineages, are lacking classical major histocompatibility complex class I antigen. Proc. Natl. Acad. Sci. USA 97, 12132-12137) at 37° C. in a 5% CO2 incubator for 4-5 days, and the initiating cells were expanded.
2. Preparation of trophoblast cells: adult human gastric subepithelial myofibroblasts (aGSEMFs, the cells were obtained by separation of gastric tissue matrix layers, frozen in large quantities after culture and proliferation, and resuscitated in advance when necessary) as trophoblast cells were treated with mitomycin-C (10 μg/mL, for the purpose of losing mitosis of trophoblast cells) for 2-3 hours, washed with PBS for 3-4 times, the cells were digested by TrypLE enzyme, and then the cells were washed;
3. When human gastric epithelial cells (hGECs) or duodenal epithelial cells (hDECs) were cultured until day 5-6, the treated gastric subepithelial myofibroblasts were added at a suitable density (generally, density of 1-3×10^5 per square centimeter) to human gastric epithelial cells (hGECs) or duodenal epithelial cells (hDECs) being cultured, and placed at 37° C. in a 5% CO2 incubator overnight (12-16 hours);
4. Reprogramming culture: on the second day after the addition of gastric subepithelial myofibroblasts, the medium was changed to 8M reprogramming medium, and changed every 2-3 days, and continuous observation was performed. Generally, induced endodermal progenitor cells (hiEndoPCs) were obtained after culturing for 1 week or 2 weeks more (7-15 days).
1. Calculation of the total number of clones.
2. Calculation of the area of different clones using the microscope graticule: the area of each microscope microlattice was 0.0625 mm^2, and the number of lattices occupied by the clone multiplied by 0.0625 mm^2 was the area of each clone.
3. The evaluation of the efficiency of reprogramming is proformed by colligating number of clones and the area of the clones.
Since the clonal morphology produced on day 15 of reprogramming was most typical (FIGS. 8E and 8F), colony formation efficiency was usually calculated at this time point. However, the growth rate of clones was faster from day 7 to day 15, and many clones were fused together to form a large clone upon the time point for calculation (FIG. 8B), so the number of clones was less upon calculation, but the total area was increasing. In order to reflect the reprogramming effect more objectively, the present experiment colligated the total number of clones and the number of clones and clone area under different areas, as the calculation method of reprogramming efficiency. Calculation of the area of different clones using the microscope graticule: the area of each microscope microlattice was 0.0625 mm^2, and the number of lattices occupied by the clone multiplied by 0.0625 mm^2 was the area of each clone. The calculation method for different sizes of cloned areas was shown in FIG. 9, and the calculation results were shown in Table 4.
1) The trophoblast cells screened in the second part were used as the supporting cells, and the small molecules were removed one by one based on the culture conditions for above-mentioned 8 small molecule compounds (8M), and the indispensable small molecules were first screened.
2) Based on the small molecule compound combinations screened in the step 1), the small molecule compounds were successively removed one by one so that the best small molecule compound combination (with highest reprogramming efficiency) and the combination with fewest small molecule compounds (guaranteed for the formation of the clone) were finally found. […]

Row | Compound | clonal formation efficiency when the compound was removed from 8M [1] | clonal formation efficiency when the compound was removed from BBRS [1] | further results
1 | [Cl-].[K+] [KCL] |  |  | release of C peptide (hiEndoPCs-Pans): significantly increased
2 | CCCCNC(=O)NS(=O)(=O)c1ccc(C)cc1 [Tolbutamiden] |  |  | release of C peptide (hiEndoPCs-Pans): significantly increased
3 | O=C(O)C(Cc1c[nH]c2ccccc12)N1C(=O)c2ccccc2C1=O (stereo not shown) [RG108] | obviously decreased | significantly decreased | 
4 | Fructose diphosphate [FBP] | increased |  | 
5 | COc1cc2nc(N3CCCN(C)CC3)nc(NC3CCN(Cc4ccccc4)CC3)c2cc1OC [Bix01294] | obviously decreased | significantly decreased | 
6 | NC(=O)c1ccc(-c2nc(-c3ccc4c(c3)OCO4)c(-c3ccccn3)[nH]2)cc1 [SB431542] | clones were not produced | no clones were formed | clonal formation efficiency compared with BBRS ([1]; SB431542 as basis): not as good as the optimal combination of BBRS; clone formation with the fewest small molecules ([1]; SB431542 as basis): capable for forming the clones
7 | CCCC(CCC)C(=O)O [VPA, Valproic Acid] | did not change significantly |  | 
8 | O=C(O)/C=C(/CCc1ccc(Cl)cc1)c1ccccc1 [PS48] | increased |  | 
9 | COC(=O)C1=C(C)NC(C)=C([N+](=O)[O-])C1c1ccccc1C(F)(F)F (stereo not shown) [Bay K 8644] | obviously decreased | significantly decreased | 
10 | O=C(NOC[C@H](O)CO)c1ccc(F)c(F)c1Nc1ccc(I)cc1F [PD0325901] | increased |  | 
